In ChEMBL document CHEMBL5724558, “Image-based profiling of drug vulnerabilities in CRC organoids” (2024):
Where “and” joins values, the source holds several entries; their conditions need not be identical. Equal values may be shown once.

How the values were obtained:
Type in all cases: functional, Homo sapiens
Parameters in all cases: dose or concentration left out as unconfirmed
Colon cancer organoid [1] = assay: (§1) Image-based profiling of donated chemical probes and chemogenomic kinase set in O06 CRC organoid. Image analysis is performed on the sum area metric, and the data were normalized to the DMSO control. After imaging the organoid viability is measured using the OneGloEX Luciferase Assay System. The normalized viability data and sum area are reported.
Colon cancer organoid [2] = assay: as §1, with “O09” for “O06”
Colon cancer organoid [3] = assay: as §1, with “O21” for “O06”

Row | Structure (SMILES) | Cell Viability (Colon cancer organoid [1]; Replication number 1) | Cell Viability (Colon cancer organoid [1]; Replication number 2) | Cell Viability (Colon cancer organoid [2]; Replication number 1) | Cell Viability (Colon cancer organoid [2]; Replication number 2) | Cell Viability (Colon cancer organoid [3]; Replication number 1) | Cell Viability (Colon cancer organoid [3]; Replication number 2)
1 | C[C@@H]1CCN(C(=O)CC#N)C[C@@H]1N(C)c1ncnc2[nH]ccc12.O=C(O)CC(O)(CC(=O)O)C(=O)O [TOFACITINIB CITRATE] | 54.8894% and 73.0004% | 74.5746% and 82.0566% | 230.679% and 101.979% | 85.7625% and 94.2129% | 116.988% and 133.24% | 108.318% and 111.695%
2 | COc1ncc(F)cc1CNc1ccc(Cc2c[nH]c3ncc(C)cc23)c(F)n1 [PLX-5622] | 113.45% and 123.522% | 100.072% and 108.792% | 193.371% and 111.454% | 159.434% and 112.03% | 106.139% and 77.4913% | 117.508% and 96.7254%
3 | COc1cc2c(cc1-c1c(C)noc1C)ncc1[nH]c(=O)n([C@H](C)c3ccccn3)c12 | 37.8038% and 58.2282% | 43.3272% and 66.9145% | 51.0073% and 39.6445% | 53.9016% and 48.1786% | 88.6726% and 67.015% | 110.558% and 99.8807%
4 | COCCN1CCC(c2cc(CN(C)C(=O)c3cccc(Oc4ccccc4)c3)ccn2)CC1 | 195.683% and 128.295% | 160.805% and 131.439% | 147.027% and 86.0124% | 179.06% and 107.19% | 116.465% and 111.692% | 91.1118% and 90.2148%
5 | CCCCNNC(=O)c1ccc(Br)cc1 | 141.347% and 94.2282% | 136.66% and 100.85% | 73.4793% and 89.7218% | 77.458% and 82.3883% | 97.5198% and 109.34% | 111.608% and 95.0477%
6 | O=C1c2ccc(Nc3ccc(F)cc3F)cc2CCc2ccc(OC[C@H](O)CO)cc21 [Skepinone-L] | 90.1352% and 107.854% | 111.788% and 116.531% | 97.726% and 98.0993% | 77.28% and 97.9381% | 124.274% and 139.142% | 112.785% and 100.442%
7 | CCOC(=O)Nc1cc(-c2ccc(C)c(NS(C)(=O)=O)c2)nn2c(C)nnc12 | 97.2241% and 83.1141% | 52.6014% and 56.6383% | 56.4078% and 39.4127% | 74.2439% and 53.3101% | 101.464% and 109.34% | 124.525% and 131.026%
8 | CCOc1ccn(-c2ccc(F)cc2)c(=O)c1C(=O)Nc1ccc(Oc2ccnc(N)c2Cl)c(F)c1 [BMS-777607] | 96.7201% and 108.61% | 116.766% and 115.578% | 102.993% and 102.228% | 97.5395% and 82.0651% | 134.256% and 110.941% | 106.617% and 115.725%
9 | O=C(c1ccc(F)c(F)c1Nc1ccc(I)cc1F)N1CC(O)([C@@H]2CCCCN2)C1 [COBIMETINIB] | 2.921% and 4.652% | 3.136% and 6.437% | 5.994% and 14.4616% | – | 18.944% and 20.5157% | 17.3316% and 26.4843%
10 | COc1ccc(COc2ccc(Cc3cnc(N)nc3N)cc2OC)cc1 [GW632580X] | 58.2611% and 105.272% | 114.527% and 102.005% | 97.2833% and 91.2576% | 140.582% and 107.98% | 84.7531% and 94.7735% | 111.284% and 94.9982%
11 | CNC(=O)c1cc(C(=O)NC2CC2)cn(Cc2ccccc2)c1=O [GSK620] | 87.0029% and 102.753% | 87.2683% and 118.693% | 52.8448% and 80.6552% | 55.7609% and 83.862% | 98.0477% and 88.9414% | 114.221% and 102.991%
12 | O=C(NC[C@H](O)CN1CCc2ccccc2C1)c1ccnc(NC2CCC2)c1 | 27.5023% and 69.1007% | 41.1138% and 71.2161% | 64.9401% and 74.8841% | 97.6148% and 75.2613% | 82.4125% and 78.1842% | 61.8775% and 72.494%
13 | CCN(Cc1ccc(Cl)cc1)c1ncc(C(=O)NCCCN2CCCC2=O)c(NC2CCCC2)n1 | 89.2777% and 109.917% | 114.236% and 99.6728% | 161.079% and 96.7604% | 165.307% and 110.619% | 106.065% and 92.3751% | 124.526% and 113.344%
14 | Cc1cc(NC(=O)c2cccc(S(F)(F)(F)(F)F)c2)cc(-n2ccn3nc(-c4cccnc4)cc23)c1 [BAY-309] | 100.937% and 113.583% | 92.9473% and 106.13% | 161.366% and 84.5766% | 126.224% and 101.643% | 93.9876% and 96.6365% | 97.5385% and 109.184%
15 | COc1ccc2c(O[C@@H]3C[C@H]4C(=O)N[C@]5(C(=O)O)CC5/C=C\CCCCC[C@H](NC(=O)OC5CCCC5)C(=O)N4C3)cc(-c3csc(NC(=O)C(C)C)n3)nc2c1C (stereo partly drawn) [BI 1230] | 145.195% and 153.864% | 115.735% and 122.476% | 106.493% and 128.298% | 89.1059% and 82.6579% | 91.3171% and 103.622% | 114.827% and 120.408%
16 | COc1ccc(CCc2nc3cc(-c4c(C)noc4C)ccc3n2C[C@H](C)N2CCOCC2)cc1Cl | 175.76% and 138.685% | 131.173% and 129.766% | 60.3888% and 74.4204% | 92.6649% and 71.2702% | 102.391% and 140.496% | 95.0347% and 135.859%
17 | CO[C@H]1CC[C@H](CNc2ccc(S(=O)(=O)NC(=O)c3ccc(N4CCN(CC5=C(c6ccc(Cl)cc6)CC(C)(C)CC5)CC4)cc3Oc3cnc4[nH]ccc4c3)cc2[N+](=O)[O-])CC1 [A-1211212] | 28.9146% and 70.6883% | 21.4505% and 46.3719% | 50.8739% and 100.725% | 51.2572% and 87.2324% | 101.35% and 117.861% | 64.2952% and 94.8335%
18 | Cc1ccc(-c2cnc([C@@]3(O)CC[C@H](C(=O)O)C(C)(C)C3)s2)cc1Nc1cccc(C(F)(F)F)n1 [MRL-SYKi-NC] | 90.9085% and 96.9555% | 94.2486% and 84.0983% | 109.363% and 85.7712% | 161.475% and 115.078% | 112.056% and 96.0543% | 96.6815% and 86.7347%
19 | CCCS(=O)(=O)c1cc(NC2CC2)nc(-c2ccc3c(ccn3C3CC(C)(C)NC(C)(C)C3)c2)n1 | 40.3908% and 48.3221% | 87.7215% and 108.975% | 103.467% and 88.0989% | 115.748% and 108.331% | 82.8925% and 103.462% | 85.2127% and 87.5298%
